Measured values published in PubChem BioAssay AID463203 (Broad Institute, 2010).
The source made the active and inactive calls.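 The calls were made as follows: active = more than half of replicate measurements showing over 20% loss of kinase signal relative to plate controls; inconclusive = some but at most half of replicates over 20% loss; inactive = no replicate over 20% signal loss.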

target: Glycogen synthase kinase-3 alpha (Homo sapiens) (UniProt P49840); test: concentration-response blocking of human GSK3A – biochemical, luminescence, cell-free homogeneous, retest, dose response (AID 463203); details: GSK-3 alpha enzyme, ADP-Glo luminescence, 60 min
Sequence (P49840 whole entry, looked up): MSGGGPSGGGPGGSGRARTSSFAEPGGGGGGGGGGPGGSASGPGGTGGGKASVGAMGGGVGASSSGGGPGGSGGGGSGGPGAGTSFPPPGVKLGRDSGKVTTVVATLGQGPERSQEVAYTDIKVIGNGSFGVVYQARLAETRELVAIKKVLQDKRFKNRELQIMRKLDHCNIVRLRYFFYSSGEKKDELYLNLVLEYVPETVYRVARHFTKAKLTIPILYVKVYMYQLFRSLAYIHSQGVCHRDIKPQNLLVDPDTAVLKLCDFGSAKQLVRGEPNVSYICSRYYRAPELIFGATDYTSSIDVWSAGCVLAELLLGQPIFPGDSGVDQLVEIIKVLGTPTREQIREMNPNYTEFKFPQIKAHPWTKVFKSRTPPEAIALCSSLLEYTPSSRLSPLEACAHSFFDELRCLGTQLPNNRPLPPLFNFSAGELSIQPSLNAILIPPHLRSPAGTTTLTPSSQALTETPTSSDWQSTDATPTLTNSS

Compound	AC50
CCCOc1ccc(-c2c(C(=O)N/N=C(\C)c3ccncc3)nnn2-c2nonc2N)cc1	> 30 µM (inactive)
C#CCOCCOCCOCCNc1nc(N2CCN(C(=O)CCCCCCCCCCNC(=O)[C@H](CCCCN)n3cc(C)nn3)CC2)nc(N2CCN(C(=O)CCCCCCCCCCNC(=O)[C@@H]([C@H](C)CC)n3cc(CCCCCN)nn3)CC2)n1	> 30 µM (inactive)
Nc1cccc(C(=O)O)c1	> 30 µM (inactive)
CN1/C(=C\C=C(/C#N)C(=O)Nc2ccccc2F)C(C)(C)c2ccccc21	> 30 µM (inactive)
Cc1ccc2nc(-c3ccncc3)[nH]c2c1	> 30 µM (inactive)
Cc1ccc(-n2cnc(N)c2C(=O)c2cccc([N+](=O)[O-])c2)cc1	10.8 µM
Cc1ccc(OCC(=O)NNC(=O)C(C)Sc2ncnc3sc(C)c(C)c23)cc1 (configuration not stated)	> 30 µM (inactive)
O=C1Nc2ccccc2C1(O)c1ccccc1O (configuration not stated)	> 30 µM (inactive)
O=[N+]([O-])c1cccnc1NCCc1ccccc1	> 30 µM (inactive)
O=c1cc(-c2ccccc2)oc2ccccc12	> 30 µM (inactive)
O=C(c1ccco1)N(Cc1ccccc1)c1cccc([N+](=O)[O-])c1	> 30 µM (inactive)
Cc1cccc(N2CCN(C(=O)c3cc4c(=O)[nH]c5ccccc5c4n3C)CC2)c1C	> 30 µM (inactive)
COc1ccc(C(=O)NCC(=O)N/N=C/C(C)=C/c2ccccc2)cc1OC	> 30 µM (inactive)
CN(C)C(=O)Oc1ccc(OC(=O)N(C)C)cc1	> 30 µM (inactive)
COc1ccc(-n2c(Cc3cccn3C)nnc2SCC(=O)Nc2ccc(F)cc2)cc1	> 30 µM (inactive)
N#CC1=C2SCN(c3ccccc3)CN2C(=O)CC1c1c(Cl)cccc1Cl (configuration not stated)	> 30 µM (inactive)
CCCOc1cccc(-c2nnc(N)s2)c1	> 30 µM (inactive)
CC(=O)N1CCc2c(sc(NC(=O)c3cccc(N4C(=O)CCC4=O)c3)c2C(N)=O)C1	> 30 µM (inactive)
COc1ccccc1C(=O)NC(C)c1ccccc1 (configuration not stated)	> 30 µM (inactive)
O=c1[nH]nc(SCc2nnc(-c3cccc(Cl)c3)o2)n1C1CCCCC1	> 30 µM (inactive)
N#CCCn1cc(/C=N/O)c(-c2ccccc2)n1	> 30 µM (inactive)
CC1(C)CC(=O)C2=C(C1)Nc1[nH]n(-c3ccccc3)c(=O)c1C2c1ccc2c(c1)OCO2 (configuration not stated)	> 30 µM (inactive)
O=C(Nc1ccccc1)c1ccc(CSc2ncccn2)cc1	> 30 µM (inactive)
Cc1ccc(S(=O)(=O)CCSc2n[nH]c(=O)n2-c2ccccc2)cc1	11.8 µM
COCc1c(C(=O)N/N=C\c2cccnc2)nnn1-c1nonc1N	> 30 µM (inactive)
Cc1cccc(NC(=O)CSCc2nc3c(nnn3Cc3ccc(F)cc3)c(=O)[nH]2)c1C	> 30 µM (inactive)

Compound	AC50
O=C(CSc1nnc(-c2ccc(O)cc2)o1)Nc1ccc2c(c1)OCCO2	0.463 µM
NNc1nc2sc3c(c2c(=O)[nH]1)CCc1ccccc1-3	> 30 µM (inactive)
COCCNC(=O)Cn1cnc([N+](=O)[O-])n1	> 30 µM (inactive)
COc1ccccc1N1CCN(C(=O)c2cc(-c3ccccc3)on2)CC1	> 30 µM (inactive)
CCCCOC(=O)Nc1nnc(COc2ccccc2)s1	> 30 µM (inactive)
O=C(CSc1ccccc1)Nc1nnc(C2CC2)s1	> 30 µM (inactive)
COc1cc(/C(C)=N/NC(=O)c2nnn(-c3nonc3N)c2-c2cccs2)ccc1O	1.95 µM
O=C(CNS(=O)(=O)c1ccccc1)N/N=C/c1ccc(O)cc1	30.2 µM
Cc1ccnc(NC(=O)Cn2c(=O)oc3cc(S(=O)(=O)N4CCCC4)ccc32)c1	26.9 µM
COc1ccc(/C=N/NC(=O)c2nnn(-c3nonc3N)c2CN(C)c2ccccc2)cc1	> 30 µM (inactive)
NC1=NC(=O)/C(=C\c2ccc(-c3ccc(Cl)cc3)o2)S1	1.4 µM
CC(C)NC(=O)/C(=C\c1cccc([N+](=O)[O-])c1)NC(=O)c1ccccc1	> 30 µM (inactive)
Cc1cc(=O)[nH]c2c(C)c(Cl)ccc12	> 30 µM (inactive)
COC(=O)c1ccc(CSc2ccc3nnc(-c4ccc(OC)cc4)n3n2)o1	17.1 µM
CCOc1ccccc1-n1c(O)c(C=NCCCn2ccnc2)c(=O)[nH]c1=O	20.5 µM
Cc1ccc(-c2c3c(=O)n(C)c(=O)n(C)c3cn2Cc2ccccn2)cc1	> 30 µM (inactive)
N#Cc1sc2nc(-c3cccs3)cc(-c3ccccc3)c2c1N	> 30 µM (inactive)
COc1cccc(Nc2nc(N)c([N+](=O)[O-])c(NCc3ccccc3)n2)c1	13.4 µM
COc1ccc2nc(SCc3nc(N)nc(Nc4ccccc4)n3)[nH]c2c1	12.5 µM
COc1ccc(OC)c(/C=N/NC(=O)c2nnn(-c3nonc3N)c2-c2cccs2)c1	1.35 µM
COc1ccc(OC)c(S(=O)(=O)N2CCN(C(=O)c3cc(C4CC4)nn3-c3ccccc3)CC2)c1	> 30 µM (inactive)
Cc1onc(-c2c(F)cccc2Cl)c1C(=O)OCC(=O)Nc1c(C)n(C)n(-c2ccccc2)c1=O	> 30 µM (inactive)
CC(=O)c1sc(NC(=O)c2ccc3c(c2)OCO3)nc1C	> 30 µM (inactive)
Nc1nc2n(n1)C(c1ccc(F)cc1)CC(c1ccc(F)cc1)N2 (configuration not stated)	> 30 µM (inactive)
CC(=O)Oc1cc(O)c2c(=O)c(OC(C)=O)c(-c3ccc(OC(C)=O)c(OC(C)=O)c3)oc2c1	15.4 µM
CCN1CCN(c2c(Cl)cccc2NC(=O)c2cccs2)CC1	> 30 µM (inactive)

Compound	AC50
Cc1ccc(/C=N/NC(=O)c2nnn(-c3nonc3N)c2CN(C)C2CCCCC2)cc1	> 30 µM (inactive)
Cc1cc(C(C#N)c2ccccc2)n2ncnc2n1 (configuration not stated)	3.35 µM
CCOC(=O)c1nnn(-c2nonc2N)c1COc1ccc(F)cc1	4.9 µM
N/C(=N\OC(=O)c1ccco1)c1ccc(Cl)cc1	> 30 µM (inactive)
CCn1c(SCC(=O)N/N=C/C=C\c2ccco2)nc2ccccc21	> 30 µM (inactive)
CCOC(=O)N1CCC(NC(=O)CCc2nc(C3=CCN(C)CC3)no2)CC1	> 30 µM (inactive)
Cc1nc2c(C)cccn2c1/C(O)=C1\C(=O)C(=O)N(CCN2CCOCC2)C1c1cccs1 (configuration not stated)	> 30 µM (inactive)
COc1cccc(C(=O)O/N=C(\N)c2ccccn2)c1	16.8 µM
Cc1ccsc1C(=O)OCC(=O)N1C(C)CCCC1C (configuration not stated)	> 30 µM (inactive)
CCN(CC)CCCNc1nc(N)c([N+](=O)[O-])c(N2CCCCCC2)n1	29.6 µM
COC(=O)/C=C1/S/C(=N/NC(=O)c2ccccc2OC)NC1=O	> 30 µM (inactive)
N#Cc1c(Cl)c(Cl)c2nnc(-c3ccc(Br)cc3)n2c1Cl	20.6 µM
COc1cc2sc(C)nc2c2ccccc12	> 30 µM (inactive)
C=CCN1C(=O)/C(=C\c2cccs2)C(C(=O)OC)=C1C	> 30 µM (inactive)
CCC(C)[C@H](NC(=O)Nc1ccc(S(N)(=O)=O)cc1)C(=O)O (some centres not stated)	> 30 µM (inactive)
CCOc1ccc(C(=O)c2cnc3ccccc3c2N2CCN(CC)CC2)cc1	> 30 µM (inactive)
Cc1nc(N2CCOCC2)nc(N2CCCCC2)c1[N+](=O)[O-]	> 30 µM (inactive)
CCN1CCN(CC(=O)Nc2nc3ccc(OC)cc3s2)CC1	> 30 µM (inactive)
COc1ccc(C2=Nn3c(nnc3-c3cccnc3)SC2)cc1OC	> 30 µM (inactive)
O=C(O)CCSc1nnc(-c2ccncc2)n1-c1ccccc1	> 30 µM (inactive)
COc1ccc(-c2noc(CCC(=O)Nc3nc4ccccc4s3)n2)cc1	> 30 µM (inactive)
CCNC(=S)NNC(=O)c1cccs1	> 30 µM (inactive)
Cc1ccccc1CNC(=O)c1cc(COc2ccc(F)cc2F)on1	> 30 µM (inactive)
O=C(Nc1ccccc1C(=O)N1CCOCC1)c1cccnc1	> 30 µM (inactive)
O=C(CSCCc1ccccn1)Nc1ccccn1	> 30 µM (inactive)
CCOc1cccc2sc(=NC(=O)c3ccco3)n(CC(=O)OC)c12	7.61 µM

Compound	AC50
O=C1NC(=Nc2ccccc2Cl)S/C1=C\c1cccc([N+](=O)[O-])c1	> 30 µM (inactive)
Cc1ccc(CSc2nnc(SCC(=O)N/N=C/c3ccc(C(=O)O)cc3)s2)cc1	> 30 µM (inactive)
O=C(CSc1nc2[nH]ncc2c(=O)n1-c1ccc(Cl)c(Cl)c1)NCc1ccccc1Cl	> 30 µM (inactive)
Oc1ccc2oc3c(c2c1/C=N/n1cnnc1)CCCC3	> 30 µM (inactive)
O=C(NCC1CCN(Cc2ccccc2Cl)CC1)Nc1ccccc1F	> 30 µM (inactive)
O=C(c1ccco1)N(Cc1ccc([N+](=O)[O-])cc1)c1ccc(Cl)cc1	> 30 µM (inactive)
C#CCSc1nnc(-c2ccc(O)cc2)o1	25.5 µM
Fc1cccc(/C=N/Nc2cc(N3CCOCC3)ncn2)c1	> 30 µM (inactive)
CC(=O)Nc1ccc(C(=O)OCC(=O)Nc2c(C)n(C)n(-c3ccccc3)c2=O)cc1	> 30 µM (inactive)
O=C(NCCCCCCNC(=O)OCCO)OCCO	> 30 µM (inactive)
COc1ccc(Cn2nnc(C(=O)Nc3ccc(F)cc3)c2N)cc1	> 30 µM (inactive)
CSc1nc(SCCN(C)C)c2c3c(sc2n1)COC(C)(C)C3	> 30 µM (inactive)
COc1c2ccccc2nc2ccccc12	> 30 µM (inactive)
Nc1nc2n(n1)C(c1ccc(Cl)cc1)CC(c1ccc(F)cc1)N2 (configuration not stated)	> 30 µM (inactive)
COc1ccc(CCNC(=O)c2nnn(-c3ccccc3OC)c2N)cc1OC	14.8 µM
COc1cc(Br)c(C2C(C#N)=C(N)Oc3n[nH]c(-c4cccnc4)c32)cc1OC (configuration not stated)	> 30 µM (inactive)
COc1ccc([N+](=O)[O-])cc1NC(=O)CCN1CCN(CCO)CC1	> 30 µM (inactive)
CCC(=O)NCCNc1ccc([N+](=O)[O-])cn1	> 30 µM (inactive)
O=C(CSc1ccc2nnc(-c3ccccn3)n2n1)N1CCN(c2ccccc2)CC1	> 30 µM (inactive)
COc1ccccc1N1C(=O)C2C(c3ccccc3F)NN(C(=O)c3ccc(C)cc3)C2C1=O (configuration not stated)	> 30 µM (inactive)
NS(=O)(=O)c1ccc(-c2ccc(/C=C3\SC(=O)NC3=O)o2)cc1	5.29 µM
O=C(CSCCO)Nc1ccc([N+](=O)[O-])cc1	> 30 µM (inactive)
CCOc1cccc(-c2c(C(=O)N/N=C(\C)c3cccnc3)nnn2-c2nonc2N)c1	5.21 µM
COc1ccccc1C(=O)NNC(=O)c1cccc(Br)c1	> 30 µM (inactive)
